{
  "source": "patent US9908880B2",
  "about": "“Substituted imidazoquinolines” (4SC AG, priority 2008, dated 2018)",
  "key": {"PCIR-1 cells": {"system": "PCIR-1 cells", "assay": "Cytokine mRNA induction in PCIR-1 human cancer cell line (TaqMan PCR)", "type": "cell-based", "settings": "for induction of IP-10: after 15 h", "experimental": "Expression of IL8 mRNA was measured with TaqMan PCR after 16 hours incubation of cells with H2006, LPS or Resiquimod alone and in combination with cloroquine.\nCellular assays using a human cancer cell line (PCIR-1) or human PBMC fractions to test compounds for activating TLR7 are established.\nSpecificity for TLR7 and 9 was checked by adding chloroquine, which abrogates signaling through endosomal TLRs. The PCIR-1 system is suited for measuring the interferone-linked cytokine IP10 by a bead-based assay in the 384-well format.\nTLR mRNA Expression in PCIR-1 (TaqMan PCR Analysis)\nAlso response to poly I-C double-stranded RNA (TLR 3 ago); 40-fold induction of IP-10 after 15 h) and MALP-2 (TLR 2/6 hetero-dimer ago, 100-fold induction of IP-10 after 15 h) is detected.\nIn contrast TLR4 signaling by LPS is not affected (FIG. 1)."}, "[1]": {"system": "Renca LacZ tumor cell lung metastases", "assay": "Renca lung metastasis model", "experimental": "(§1) In particular, female Balb/c mice (n=10) were treated for 4 consecutive days starting day 1 or day 8 after Renca LacZ tumor cell injection, respectively. The compounds were applied in 20% PEG, ODNs in 0.9% NaCl as indicated. Lungs were excised 25 days after tumor cell injection.\nas §1, with “compounds (small molecules (SMOLs))” for “compounds”\nAbstract 3552, Proc Am Cancer Res 48, 2007.\nIn particular, female Balb/c mice (n=10) were treated for 4 consecutive days starting day 1 or day 8 after Renca LacZ tumor cell injection, respectively. The SMOLs were applied in 20% PEG, the oligonucleotides in 0.9% NaCl as indicated. Lungs were excised 25 days after tumor cell injection (see FIG. 4A). Further, female Balb/c mice (n=5) were treated for 4 consecutive days as indicated. The SMOLs were applied in 20% PEG, oligonucleotides in 0.9% NaCl. At day 4 of treatment, blood was collected via orbital plexus and spleens were excised. Subsequently, mRNA was isolated for expression analysis via qPCR. Data were normalized to vehicle control (mean set to 1). Statistical evaluation was performed via Mann-Whitney test (see FIG. 4B). […]"}, "[2]": {"system": "superficial basal cell carcinomas", "settings": "marketed 5% cream (Aldara), topical; cited from earlier work"}},
  "data": [
    {"compound": "CCN(CC)CCCC(C)Nc1ccnc2cc(Cl)ccc12", "note": "(stereo not drawn) [chloroquine]", "values": [
      {"measurement": "signaling via TLR7 and TLR9 on addition of chloroquine", "setting": "PCIR-1 cells; FIG. 1, IL8 mRNA after 16 hours", "result": "completely blocked"}
    ]},
    {"compound": "MALP-2", "values": [
      {"measurement": "induction of IP-10", "setting": "PCIR-1 cells", "result": 100, "unit": "fold"}
    ]},
    {"compound": "CCc1nc2c(N)nc3ccccc3c2n1CCCCN(C(C)=O)C1CCOC1C", "note": "(stereo not drawn) [Example III, 3-{acetyl[4-(4-amino-2-ethyl-1H-imidazo[4,5-c]quinolin-1-yl)butyl]amino}-2,5-anhydro-1,3,4-trideoxypentitol]", "values": [
      {"measurement": "anti-metastatic effect (clearance of the lungs)", "setting": "[1]; short treatment (d1-4), FIG. 5", "result": "strong anti-metastatic effect with virtually complete clearance of the lungs"}
    ]},
    {"compound": "poly I-C", "values": [
      {"measurement": "induction of IP-10", "setting": "PCIR-1 cells", "result": 40, "unit": "fold"}
    ]},
    {"compound": "CC(C)Cn1cnc2c(N)nc3ccccc3c21", "note": "[Imiquimod, imiquimod]", "values": [
      {"measurement": "5 year clearance of superficial basal cell carcinomas", "setting": "[2]", "result": "approx 80%"}
    ]},
    {"compound": "Nc1nc2c(sc(=O)n2[C@@H]2O[C@H](CO)[C@@H](O)[C@H]2O)c(=O)[nH]1", "note": "[isatoribine, 7-thia-8-oxoguanosine]", "values": [
      {"measurement": "emergence of lung metastases", "setting": "[1]; murine Renca lung metastasis model", "result": "virtually completely suppressed"}
    ]}
  ]
}
